Data taken from patent US12528773B2, “Non-lysosomal glucosylceramidase inhibitors and uses thereof” (ALECTOS THERAPEUTICS INC., priority 2020, dated 2026).

Key:
[1] = target: GBA2 (Homo sapiens (Human), UniProt Q9HCG7); assay: Inhibition of GBA2 in cell lysate (4-methylumbelliferone glucopyranoside substrate); assay type: biochemical; details: HEK293T-overexpressing GBA2 cellular homogenate, pH 5.5; read-out: GBA2 IC50;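 note: homogenate of stably transfected HEK293T cells pre-treated with a GCase inhibitor, test compound preincubated 5 min at 37 °C, substrate reaction 20 min at 37 °C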
Chain of GBA2 (Q9HCG7 whole entry): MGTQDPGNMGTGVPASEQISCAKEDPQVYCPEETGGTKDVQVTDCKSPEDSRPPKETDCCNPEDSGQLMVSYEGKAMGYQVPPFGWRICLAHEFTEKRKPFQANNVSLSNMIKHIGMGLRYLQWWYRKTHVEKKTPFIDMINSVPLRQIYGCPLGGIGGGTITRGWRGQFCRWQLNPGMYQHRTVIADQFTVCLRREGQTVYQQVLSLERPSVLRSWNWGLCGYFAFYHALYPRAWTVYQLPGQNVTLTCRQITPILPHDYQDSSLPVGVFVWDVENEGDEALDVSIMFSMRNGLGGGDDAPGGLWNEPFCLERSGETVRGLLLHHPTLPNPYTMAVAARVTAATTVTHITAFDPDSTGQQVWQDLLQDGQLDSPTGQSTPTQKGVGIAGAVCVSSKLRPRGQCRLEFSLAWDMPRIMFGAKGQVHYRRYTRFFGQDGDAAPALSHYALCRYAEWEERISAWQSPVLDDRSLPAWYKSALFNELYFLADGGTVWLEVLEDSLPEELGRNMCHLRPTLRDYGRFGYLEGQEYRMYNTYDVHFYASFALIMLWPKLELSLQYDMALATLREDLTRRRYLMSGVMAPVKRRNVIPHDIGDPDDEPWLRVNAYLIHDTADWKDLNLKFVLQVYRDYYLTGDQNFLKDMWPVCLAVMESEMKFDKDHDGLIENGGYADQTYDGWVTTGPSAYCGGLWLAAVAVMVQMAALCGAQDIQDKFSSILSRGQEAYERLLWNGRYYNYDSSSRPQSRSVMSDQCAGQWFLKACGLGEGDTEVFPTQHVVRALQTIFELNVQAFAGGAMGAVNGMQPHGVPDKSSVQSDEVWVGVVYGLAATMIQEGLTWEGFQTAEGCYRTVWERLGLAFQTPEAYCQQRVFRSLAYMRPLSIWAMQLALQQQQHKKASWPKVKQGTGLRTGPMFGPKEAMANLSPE

[2] = test system: rat intestinal alpha-glucosidases; assay: Inhibition of rat intestinal alpha-glucosidases (rat intestinal lysate, glucose detection); assay type: biochemical; details: compound concentration 25 μM, sucrose as substrate
Protocol: Assay for Determination of Inhibition of Rat Intestinal Alpha-Glucosidases
Various concentrations of test compounds were prepared in DMSO and then diluted into buffer consisting of 100 mM citric acid, 200 mM disodium phosphate, pH 6.0. Rat intestinal acetone powder (Sigma) was dissolved to 12.5 mg/mL in assay buffer and sonicated in an ice bath, centrifuged, and the supernatant was collected, aliquoted and stored at −20° C. until use. On the day of the assay, the rat intestinal lysate was diluted to 6.25 mg/mL (sucrose reactions) and 2.1 mg/ml (maltose reactions) in assay buffer. The final reaction solutions for sucrose contained 2.1 mg/mL rat intestinal lysate, 40 mM sucrose, 50 or 25 μM of test compound, and 3.3% DMSO. The final reaction solution for maltose contained 0.69 mg/mL rat intestinal lysate, 10 mM maltose, 50 or 25 μM of test compound, and 3.3% DMSO. The reaction was initiated by the addition of substrate (sucrose or maltose) and allowed to proceed at 37° C. for 20 min to assess rat intestinal alpha-glycosidase activities. The reaction was stopped by addition of 20 μL of 2 M Tris-HCl, pH 7.0. The glucose produced during the reaction was detected using a commercial Amplex Red glucose detection kit from Thermo Fisher. For a full plate, the Amplex Red detection mixture was prepared by mixing 35 μL glucose oxidase, 35 μL horseradish peroxidase and 35 μL Amplex Red into 3395 μL 1× Amplex Red detection buffer. A total of 30 μL of detection mixture was added to each well. Fluorescence was measured in kinetic mode on a Biotek Synergy H4 plate reader at a wavelength of 573 nm for excitation and 610 nm for emission for 15 min and quantified from the data at 10 min. Incubations without added rat intestinal lysate were used to correct for the background amount of glucose present in the samples. Incubations without added test compound were used to define maximal enzyme activity. Percent inhibition of rat intestinal alpha-glucosidases was determined by dividing the amount of glucose detected in the presence of test compound by the amount of glucose detected in the maximal enzyme activity wells. All conditions were analyzed in triplicate. […] The final reaction solutions were the same as described above for the Amplex Red Detection kit. After a 20 min reaction time at 37° C., 100 μL of hexokinase glucose reagent was added to all test wells except for the no enzyme added control wells and no test compound added wells. The plate was incubated for a further 15 min at room temperature and the absorbance was read at 340 nm on a Biotek Synergy H4 plate reader. The percent inhibition of rat intestinal alpha-glucosidases was determined in a similar manner as described above.

| SMILES | IC50 [1] [nM] | rat α-glu. (% inhib.) [2] [%] |
| --- | --- | --- |
| O[C@H]1[C@H](O)CN(C[C@@H]2CCN(c3ccc(C(F)(F)F)cn3)C2)C[C@@H]1O [Example 161, (3S,4S,5R)-1-(((S)-1-(5-(trifluoromethyl)pyridin-2-yl)pyrrolidin-3-yl)methyl)piperidine-3,4,5-triol] | < 100 | 0 |
| O[C@H]1[C@H](O)CN(C[C@@H]2CCN(c3ccc(C(F)(F)F)nc3)C2)C[C@@H]1O [Example 162, (3S,4S,5R)-1-(((S)-1-(6-(trifluoromethyl)pyridin-3-yl)pyrrolidin-3-yl)methyl)piperidine-3,4,5-triol] | < 100 | 0 |
| O[C@H]1[C@H](O)CN(C[C@H]2CCCN(c3cnccc3C(F)(F)F)C2)C[C@@H]1O [Example 167, (3S,4R,5R)-1-(((R)-1-(4-(trifluoromethyl)pyridin-3-yl)piperidin-3-yl)methyl)piperidine-3,4,5-triol] | < 100 | 4 |
| O[C@H]1[C@H](O)CN(C[C@H]2CCCN(c3cncc(C(F)(F)F)c3)C2)C[C@@H]1O [Example 168, (3S,4R,5R)-1-(((R)-1-(5-(trifluoromethyl)pyridin-3-yl)piperidin-3-yl)methyl)piperidine-3,4,5-triol] | < 100 | 7 |
| O[C@H]1[C@H](O)CN(C[C@H]2CCCN(c3cc(C(F)(F)F)ccn3)C2)C[C@@H]1O [Example 169, (3S,4R,5R)-1-(((R)-1-(4-(trifluoromethyl)pyridin-2-yl)piperidin-3-yl)methyl)piperidine-3,4,5-triol] | < 100 | 13 |
| O[C@H]1[C@H](O)CN(C[C@H]2CCCN(c3ccc(C(F)(F)F)cn3)C2)C[C@@H]1O [Example 170, (3S,4R,5R)-1-(((R)-1-(5-(trifluoromethyl)pyridin-2-yl)piperidin-3-yl)methyl)piperidine-3,4,5-triol] | < 100 | 14 |
| O[C@H]1[C@H](O)CN(C[C@H]2CCCN(c3ccc(C(F)(F)F)nc3)C2)C[C@@H]1O [Example 171, (3S,4R,5R)-1-(((R)-1-(6-(trifluoromethyl)pyridin-3-yl)piperidin-3-yl)methyl)piperidine-3,4,5-triol] | < 100 | 1 |
| O[C@H]1[C@H](O)CN(C[C@H]2CCCN(c3ccncc3C(F)(F)F)C2)C[C@@H]1O [Example 172, (3S,4R,5R)-1-(((R)-1-(3-(trifluoromethyl)pyridin-4-yl)piperidin-3-yl)methyl)piperidine-3,4,5-triol] | < 100 | 15 |
| O[C@H]1[C@H](O)CN(C[C@H]2CCCN(c3ccnc(C(F)(F)F)c3)C2)C[C@@H]1O [Example 173, (3S,4R,5R)-1-(((R)-1-(2-(trifluoromethyl)pyridin-4-yl)piperidin-3-yl)methyl)piperidine-3,4,5-triol] | < 100 | 3 |
| O[C@H]1[C@H](O)CN(C[C@@H]2CCCN(c3cccnc3C(F)(F)F)C2)C[C@@H]1O [Example 174, (3S,4S,5R)-1-(((S)-1-(2-(trifluoromethyl)pyridin-3-yl)piperidin-3-yl)methyl)piperidine-3,4,5-triol] | < 100 | 3 |
| O[C@H]1[C@H](O)CN(C[C@@H]2CCCN(c3cncc(C(F)(F)F)c3)C2)C[C@@H]1O [Example 175, (3S,4S,5R)-1-(((S)-1-(5-(trifluoromethyl)pyridin-3-yl)piperidin-3-yl)methyl)piperidine-3,4,5-triol] | 100 to 1000 | 3 |
| O[C@H]1[C@H](O)CN(C[C@@H]2CCCN(c3cc(C(F)(F)F)ccn3)C2)C[C@@H]1O [Example 176, (3S,4S,5R)-1-(((S)-1-(4-(trifluoromethyl)pyridin-2-yl)piperidin-3-yl)methyl)piperidine-3,4,5-triol] | 100 to 1000 | 0 |
| O[C@H]1[C@H](O)CN(C[C@@H]2CCCN(c3ccc(C(F)(F)F)cn3)C2)C[C@@H]1O [Example 177, (3S,4S,5R)-1-(((S)-1-(5-(trifluoromethyl)pyridin-2-yl)piperidin-3-yl)methyl)piperidine-3,4,5-triol] | 1000 to 25000 | 7 |
| O[C@H]1[C@H](O)CN(C[C@@H]2CCCN(c3ccc(C(F)(F)F)nc3)C2)C[C@@H]1O [Example 178, (3S,4S,5R)-1-(((S)-1-(6-(trifluoromethyl)pyridin-3-yl)piperidin-3-yl)methyl)piperidine-3,4,5-triol] | 100 to 1000 | 6 |
| O[C@H]1[C@H](O)CN(C[C@@H]2CCCN(c3ccncc3C(F)(F)F)C2)C[C@@H]1O [Example 179, (3S,4S,5R)-1-(((S)-1-(3-(trifluoromethyl)pyridin-4-yl)piperidin-3-yl)methyl)piperidine-3,4,5-triol] | 100 to 1000 | 6 |
| O[C@H]1[C@H](O)CN(C[C@H]2CC[C@H](C(F)F)CC2)C[C@@H]1O [Example 185, (3S,4R,5R)-1-(((1r,4R)-4-(difluoromethyl)cyclohexyl)methyl)piperidine-3,4,5-triol] | 100 to 1000 | 3 |

Continued, in another order:

| IC50 [1] [nM] | SMILES | rat α-glu. (% inhib.) [2] [%] |
| --- | --- | --- |
| 100 to 1000 | O[C@H]1[C@H](O)CN(C[C@H]2CC[C@@H](C(F)F)CC2)C[C@@H]1O [Example 186, (3S,4R,5R)-1-(((1s,4S)-4-(difluoromethyl)cyclohexyl)methyl)piperidine-3,4,5-triol] | 8 |
| < 100 | CC(F)(F)[C@H]1CC[C@@H](CN2C[C@@H](O)[C@H](O)[C@@H](O)C2)CC1 [Example 187, (3S,4R,5R)-1-(((1s,4S)-4-(1,1-difluoroethyl)cyclohexyl)methyl)piperidine-3,4,5-triol] | 0 |
| < 100 | CC(F)(F)[C@H]1CC[C@H](CN2C[C@@H](O)[C@H](O)[C@@H](O)C2)CC1 [Example 188, (3S,4R,5R)-1-(((1r,4R)-4-(1,1-difluoroethyl)cyclohexyl)methyl)piperidine-3,4,5-triol] | 10 |
| < 100 | O[C@H]1[C@H](O)CN(C[C@H]2CC[C@H](OC(F)(F)F)CC2)C[C@@H]1O [Example 189, (3S,4R,5R)-1-(((1r,4R)-4-(trifluoromethoxy)cyclohexyl)methyl)piperidine-3,4,5-triol] | 3 |
| < 100 | O[C@H]1[C@H](O)CN(CC2Cc3c(F)ccc(F)c3C2)C[C@@H]1O [Example 190, (3S,4r,5R)-1-((4,7-difluoro-2,3-dihydro-1H-inden-2-yl)methyl)piperidine-3,4,5-triol] | 4 |
| 100 to 1000 | O=C(C1CCCCC1)N1CCC(F)(CN2C[C@@H](O)[C@H](O)[C@@H](O)C2)CC1 [Example 191, Cyclohexyl(4-fluoro-4-(((3S,4r,5R)-3,4,5-trihydroxypiperidin-1-yl)methyl)piperidin-1-yl)methanone] | 1 |
| 100 to 1000 | O[C@H]1[C@H](O)CN(CC2(F)CCN(c3ccc(F)cc3)CC2)C[C@@H]1O [Example 192, (3S,4r,5R)-1-((4-fluoro-1-(4-fluorophenyl)piperidin-4-yl)methyl)piperidine-3,4,5-triol] | 2 |
| < 100 | O[C@H]1[C@H](O)CN(CC2(F)CCN(c3ccccc3C(F)(F)F)CC2)C[C@@H]1O [Example 193, (3S,4r,5R)-1-((4-fluoro-1-(2-(trifluoromethyl)phenyl)piperidin-4-yl)methyl)piperidine-3,4,5-triol] | 2 |
| < 100 | O[C@H]1[C@H](O)CN(CC2(F)CCN(c3ncccc3C(F)(F)F)CC2)C[C@@H]1O [Example 194, (3S,4r,5R)-1-((4-fluoro-1-(3-(trifluoromethyl)pyridin-2-yl)piperidin-4-yl)methyl)piperidine-3,4,5-triol] | 4 |
| 100 to 1000 | O[C@H]1[C@H](O)CN(CC2(F)CCN(c3cccc(C(F)(F)F)n3)CC2)C[C@@H]1O [Example 195, (3S,4r,5R)-1-((4-fluoro-1-(6-(trifluoromethyl)pyridin-2-yl)piperidin-4-yl)methyl)piperidine-3,4,5-triol] | 5 |
| 100 to 1000 | O[C@H]1[C@H](O)CN(CC2(F)CCN(c3nc4ccccc4s3)CC2)C[C@@H]1O [Example 196, (3S,4r,5R)-1-((1-(benzo[d]thiazol-2-yl)-4-fluoropiperidin-4-yl)methyl)piperidine-3,4,5-triol] | 10 |
